# Results from patent US11780826B2 (Amgen Inc., priority 2017, dated 2023).
# Tested on: Bovine cardiac myofibrils
# Assay: In vitro model of dose-dependent myofibril ATPase modulation (AC1.4, pyruvate kinase/lactate dehydrogenase-coupled ATPase assay at pCa25)
# Type: biochemical
# Details: concentration at which ATPase activity was 1.4-fold higher than the bottom of the dose curve, mean of a minimum of two independent tests
# Summary of the method: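 ATP turnover tracked as NADH absorbance loss at 340 nm, coupled via pyruvate kinase/lactate dehydrogenase, with 1 mM ATP, 2 mM MgCl2 and 12 mM K-PIPES at pH 6.80 (22° C) under EGTA/CaCl2 calcium buffering. Substrate was detergent-treated bovine cardiac myofibrils; 4-parameter curve fit, AC1.4 averaged over at least two runs.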
row,SMILES,AC1.4 [µM]
1,"O=C(N[C@@H](c1ccc(C(F)(F)F)cc1F)C1CC1)[C@H]1CCCCN1C(=O)c1cccc(C(O)C(F)(F)F)c1 (stereo partly drawn) [Example 347, (2R)-N-((R)-cyclopropyl(2-fluoro-4-(trifluoromethyl)phenyl)methyl)-1-(3-(2,2,2-trifluoro-1-hydroxyethyl)benzoyl)piperidine-2-carboxamide]",1.0255
2,"NC(=O)C1(c2cccc(C(=O)N3[C@@H](C(=O)N[C@@H](c4ccc(C(F)(F)F)cc4F)C4COC4)C[C@H]4C[C@H]43)c2)CC1 [Example 349, (1R,3R,5R)-2-(3-(1-carbamoylcyclopropyl)benzoyl)-N-((R)-(2-fluoro-4-(trifluoromethyl)phenyl)(3-oxetanyl)methyl)-2-azabicyclo[3.1.0]hexane-3-carboxamide]",1.0296
3,"O=C(N[C@@H](c1ccc(C(F)(F)F)cc1F)C1COC1)[C@H]1C[C@H]2C[C@H]2N1C(=O)c1ccccc1NC(=O)C(F)(F)F [Example 351, (1R,3R,5R)-N-((R)-(2-fluoro-4-(trifluoromethyl)phenyl)(3-oxetanyl)methyl)-2-(2-(2,2,2-trifluoroacetamido)benzoyl)-2-azabicyclo[3.1.0]hexane-3-carboxamide]",1.0354
4,"CS(=O)(=O)c1cccc(C(=O)N2C[C@@H](F)C[C@@H]2C(=O)N[C@@H](c2ccc(Cl)cc2F)C2COC2)c1 [Example 352, (4S)-N-((R)-(4-chloro-2-fluorophenyl)(3-oxetanyl)methyl)-4-fluoro-1-(3-(methylsulfonyl)benzoyl)-D-prolinamide]",0.9758
5,"N#CC1CN(S(=O)(=O)N2CCC[C@H](C(=O)N3CCC[C@@H]3C(=O)NCc3cccc(C(F)(F)F)c3)C2)C1 [Example 353, 1-(((3S)-1-((3-cyano-1-azetidinyl)sulfonyl)-3-piperidinyl)carbonyl)-N-(3-(trifluoromethyl)benzyl)-D-prolinamide]",1.0398
6,"CS(=O)(=O)c1cccc(C(=O)N2C[C@H](C(F)F)C[C@@H]2C(=O)N[C@@H](c2ccc(C(F)(F)F)cc2F)C2CC2)c1 [Example 354, (4R)-N-((R)-cyclopropyl(2-fluoro-4-(trifluoromethyl)phenyl)methyl)-4-(difluoromethyl)-1-(3-(methylsulfonyl)benzoyl)-D-prolinamide]",1.0425
7,"N#CC1CN(S(=O)(=O)N2CCC[C@H](C(=O)N3CCC[C@@H]3C(=O)NCc3cc(F)cc(F)c3F)C2)C1 [Example 356, 1-(((3S)-1-((3-cyano-1-azetidinyl)sulfonyl)-3-piperidinyl)carbonyl)-N-(2,3,5-trifluorobenzyl)-D-prolinamide]",1.0535
8,"Cc1cc(CNC(=O)[C@H]2CCCN2C(=O)[C@H]2CCCN(S(=O)(=O)N3CC(C#N)C3)C2)cc(C(F)(F)F)c1 [Example 358, 1-(((3S)-1-((3-cyano-1-azetidinyl)sulfonyl)-3-piperidinyl)carbonyl)-N-(3-methyl-5-(trifluoromethyl)benzyl)-D-prolinamide]",1.0947
9,"NS(=O)(=O)c1cccc(C(=O)N2CCCC[C@@H]2C(=O)N[C@@H](c2ccc(C(F)(F)F)cc2F)C2CC2)c1 [Example 359, (2R)-N-((R)-cyclopropyl(2-fluoro-4-(trifluoromethyl)phenyl)methyl)-1-(3-sulfamoylbenzoyl)-2-piperidinecarboxamide]",1.1055
10,"O=C(N[C@@H](c1cc(F)c(C(F)(F)F)cc1F)C1CC1)[C@H]1C[C@H]2C[C@H]2N1C(=O)c1cncc(C(F)(F)F)c1 [Example 361, (1R,3R,5R)-N-((R)-cyclopropyl(2,5-difluoro-4-(trifluoromethyl)phenyl)methyl)-2-((5-(trifluoromethyl)-3-pyridinyl)carbonyl)-2-azabicyclo[3.1.0]hexane-3-carboxamide]",1.1125
11,"N#Cc1cccc(C(=O)N2[C@@H](C(=O)N[C@@H](c3ccc(C(F)(F)F)cc3F)C3COC3)C[C@H]3C[C@H]32)c1 [Example 366, (1R,3R,5R)-2-(3-cyanobenzoyl)-N-((R)-(2-fluoro-4-(trifluoromethyl)phenyl)(3-oxetanyl)methyl)-2-azabicyclo[3.1.0]hexane-3-carboxamide]",1.1445
12,"O=C(NCc1ccc(C(F)(F)F)cc1)[C@H]1CCCN1C(=O)[C@H]1CCCN(S(=O)(=O)N2CC(n3cccc3)C2)C1 [Example 367, 1-(((3S)-1-((3-(1H-pyrrol-1-yl)-1-azetidinyl)sulfonyl)-3-piperidinyl)carbonyl)-N-(4-(trifluoromethyl)benzyl)-D-prolinamide]",1.1962

# Continued, values first:
row,AC1.4 [µM],SMILES
1,1.0273,"N#CC1CN(S(=O)(=O)N2CCC[C@H](C(=O)N3[C@@H](C(=O)NCc4ccc(C(F)(F)F)cn4)C[C@H]4C[C@H]43)C2)C1 [Example 348, (1R,3R,5R)-2-(((3S)-1-((3-cyano-1-azetidinyl)sulfonyl)-3-piperidinyl)carbonyl)-N-((5-(trifluoromethyl)-2-pyridinyl)methyl)-2-azabicyclo[3.1.0]hexane-3-carboxamide]"
2,1.0349,"O=C(NCc1ccc(C(F)(F)F)cc1)[C@H]1CCCN1C(=O)c1cccc(S(=O)(=O)N2CC3(CC3)C2)c1 [Example 350, 1-((3-(5-azaspiro[2.3]hex-5-ylsulfonyl)phenyl)carbonyl)-N-(4-(trifluoromethyl)benzyl)-D-prolinamide]"
3,1.0472,"N#C[C@H]1C[C@H](S(=O)(=O)c2cccc(C(=O)N3CCCC[C@@H]3C(=O)NCc3ccc(C(F)(F)F)nc3)c2)C1 [Example 355, (2R)-1-((3-((trans-3-cyanocyclobutyl)sulfonyl)phenyl)carbonyl)-N-((6-(trifluoromethyl)-3-pyridinyl)methyl)-2-piperidinecarboxamide]"
4,1.11,"N#CC1CN(S(=O)(=O)N2CCC[C@H](C(=O)N3CCC[C@@H]3C(=O)NCc3ccc(F)cc3F)C2)C1 [Example 360, 1-(((3S)-1-((3-cyano-1-azetidinyl)sulfonyl)-3-piperidinyl)carbonyl)-N-(2,4-difluorobenzyl)-D-prolinamide]"
5,1.0375,"CS(=O)(=O)c1cncc(C(=O)N2CCC[C@@H]2C(=O)N[C@@H](c2cc(F)c(Cl)cc2F)C2CC2)c1 [Example 362, N-((R)-(4-chloro-2,5-difluorophenyl)(cyclopropyl)methyl)-1-((5-(methylsulfonyl)-3-pyridinyl)carbonyl)-D-prolinamide]"
6,1.143,"CN(Cc1ccc(C(F)(F)F)cc1)C(=O)[C@H]1CCCN1C(=O)[C@H]1CCCN(S(=O)(=O)N2CC(C#N)C2)C1 [Example 363, 1-(((3S)-1-((3-cyano-1-azetidinyl)sulfonyl)-3-piperidinyl)carbonyl)-N-methyl-N-(4-(trifluoromethyl)benzyl)-D-prolinamide]"
7,1.139,"CS(=O)(=O)c1cccc(C(=O)N2C[C@@H](F)C[C@@H]2C(=O)N[C@@H](c2ccc(Cl)c(F)c2)C2COC2)c1 [Example 365, (4S)-N-((R)-(4-chloro-3-fluorophenyl)(3-oxetanyl)methyl)-4-fluoro-1-(3-(methylsulfonyl)benzoyl)-D-prolinamide]"
8,1.2,"CC1(O)CN(S(=O)(=O)c2cccc(C(=O)N3CCC[C@@H]3C(=O)NCc3ccc(C(F)(F)F)cc3F)c2)C1 [Example 368, N-(2-fluoro-4-(trifluoromethyl)benzyl)-1-(3-((3-hydroxy-3-methyl-1-azetidinyl)sulfonyl)benzoyl)-D-prolinamide]"
